Test results as given in paper PMC6013238, “Development of novel NEMO-binding domain mimetics for inhibiting IKK/NF-κB activation” (PLoS Biology, 2018).

What was measured:
[1] = Hematological measures in acutely treated mice; format: in vivo, mouse; details: SR12343 30 mg/kg i.p. 30 min before LPS 10 mg/kg, 2 h; mean ± SD
Protocol: To determine their NF-κB inhibitory effects in vivo, SR12343 and SR12460 were tested in an acute model of LPS-induced systemic endotoxemia. C57BL/6J mice were pretreated with vehicle control, 8K-NBD peptide, or NBD mimetics at 10 mg/kg for 30 min, followed by LPS induction at 10 mg/kg (Fig 6B). Lung and liver were harvested 2–4 h post treatment for qRT-PCR analysis of NF-κB target genes. […] Despite lower plasma and tissue concentrations of SR12343 compared to SR12460, its inhibition of NF-κB/IKK in liver and lung were greater than that of SR12460 (Fig 6C). Similarly, acute treatment with SR12343 also affected the LPS-induced expression of NF-κB target genes at protein level. The extent of phosphorylation of IκBα and the levels of COX-2 were reduced in lung and liver tissues treated with SR12343 (Fig 6D and 6E). […] However, no significant differences in lung histopathology were observed. Finally, there was a slight reduction in the number of white blood cells and neutrophils in the SR12343-treated group (Table 2).
Nine mice (male; C57BL/6, 9–13 wk) were randomly divided into 3 groups with 3 mice in each group. Mice were injected i.p. with vehicle (DMSO:Tween80:H2O, 10:10:80) or small-molecule SR12343 (30 mg/kg) for 30 min and then injected i.p. with saline (1 ml/kg) or LPS (10 mg/kg in saline). After 2 h, mice were euthanized by CO2 asphyxiation prior to blood sampling via cardiac puncture. The blood from each mouse was put into 2 collection tubes with coagulant or anticoagulant heparin (approximately 0.6 mL each). The samples in the tubes coated with the anticoagulant heparin were hand-mixed several times and placed on wet ice for hematological analysis using an automatic hematology analyzer (Hemavet 950FS; Drew Scientific, Miami Lakes, FL). Samples in tubes containing no anticoagulant were allowed to clot before centrifugation and submission for serum biochemical analysis using the VetScan VS2 Analyzer with the Comprehensive Diagnostic Profile reagent rotor (Abaxis, Union City, CA). The ALT, AST, and […] activities in the serum were quantitated by a colorimetric, enzymatic method using the Clinical Chemistry Analyzer Cobas c311 (Roche Diagnostics, Risch-Rotkreuz, Switzerland) as per the manufacturer’s instructions.

[2] = system: noncanonical NF-κB pathway; test: Noncanonical NF-κB pathway, anti-LTβR-stimulated Raw 264.7 cells (p100 to p52 processing); format: cell-based, mouse; details: 100 μM, 30 min; anti-LTβR 8 h
Protocol: To determine whether the novel NBD mimetics target the NEMO-IKKβ interaction in vivo, co-immunoprecipitations were performed using extracts from Raw 264.7 macrophages (Fig 5A). […] No interaction between NEMO and TNF receptor-associated factor 2 (TRAF2) or IκBα was observed under these conditions. […] The levels of phosphorylated IKK complex, IκBα, and p65 in response to TNF-α and LPS were all reduced by SR12343 (Fig 5D & 5E). […] However, there were no changes in the levels of phospho-c-Jun N-terminal kinase (p-JNK), p-p38MAPK, total JNK, and p38MAPK by treatment with SR12343 (150 μM) in response to TNF-α or LPS stimulation (Fig 5G & 5H). […]
(A) Co-IP analysis detecting the IKKβ/NEMO interaction. […] NEMO-binding products were then analyzed for levels of IKKβ, IKKα, TRAF2, and IκBα (negative control), and levels of NEMO were used as a loading control (left panel). […] The levels of IKKβ-FLAG binding to GST-NEMO were determined by western blot analysis with GST-NEMO used as a loading control. […] Cell lysates were analyzed for activity of the IKK/NF-κB signaling pathway including activation of IKK complex, IκBα, and p65. […] Cell lysates were harvested and analyzed for activation of noncanonical NF-κB signaling, the processing of p100 to p52. […]

Work on `O=C(CNc1ccc(Cl)cn1)NCCc1cccc(Br)c1` [SR12343] yielded a Hematocrit [1] of 53.0 ± 1.5%, a Hemoglobin [1] of 15.3 ± 0.4 g/dL and a Mean corpuscular hemoglobin [1] of 14.8 ± 0.2 pg. For the same molecule, the “Mean corpuscular hemoglobin concentration” value [1] was 28.9 ± 0.2 g/dL, the Mean corpuscular volume [1] was 51.2 ± 1.0 fL and the Mean platelet volume [1] was 5.7 ± 0.8 fL. The Platelets [1] was 170.7 ± 64.0 K/μL, the Red blood cells [1] was 10.4 ± 0.3 M/μL and the “Red cell distribution width” value [1] was 15.0 ± 0.2%. The White blood cells [1] was 7.4 ± 3.3 K/μL and the “Activation of noncanonical NF-κB pathway (p100 to p52 processing)” value [2] was “no effect”.
